Read-outs that look alike come from different tables or passages of the source.
Experiments:
Assay in all cases: calcium imaging (Fluo-4) dose-response, HEK293T
Type in all cases: cell-based
[1] = target: T1, TAS2R14 (Homo sapiens, UniProt Q9NYV8)
T1 construct: full ORF from human genomic DNA with N-terminal rhodopsin tag (first 20 residues), pCI; HEK293T with Galpha16/gust44
T1 sequence (Q9NYV8 1-317): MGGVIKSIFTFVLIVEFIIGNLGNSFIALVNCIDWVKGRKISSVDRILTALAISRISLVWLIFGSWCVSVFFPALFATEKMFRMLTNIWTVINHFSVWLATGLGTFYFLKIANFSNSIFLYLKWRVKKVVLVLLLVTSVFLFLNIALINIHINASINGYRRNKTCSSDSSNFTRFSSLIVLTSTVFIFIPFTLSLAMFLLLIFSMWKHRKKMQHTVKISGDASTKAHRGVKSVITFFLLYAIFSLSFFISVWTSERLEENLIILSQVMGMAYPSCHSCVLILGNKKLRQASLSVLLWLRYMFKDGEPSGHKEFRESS
Excerpt: calcium imaging (Fluo-4) dose-response, HEK293T on TAS2R14

[2] = target: T2, TAS2R10 (Homo sapiens, UniProt Q9NYW0)
T2 construct: full ORF from human genomic DNA with N-terminal rhodopsin tag (first 20 residues), pCI; HEK293T with Galpha16/gust44
T2 sequence (Q9NYW0 1-307): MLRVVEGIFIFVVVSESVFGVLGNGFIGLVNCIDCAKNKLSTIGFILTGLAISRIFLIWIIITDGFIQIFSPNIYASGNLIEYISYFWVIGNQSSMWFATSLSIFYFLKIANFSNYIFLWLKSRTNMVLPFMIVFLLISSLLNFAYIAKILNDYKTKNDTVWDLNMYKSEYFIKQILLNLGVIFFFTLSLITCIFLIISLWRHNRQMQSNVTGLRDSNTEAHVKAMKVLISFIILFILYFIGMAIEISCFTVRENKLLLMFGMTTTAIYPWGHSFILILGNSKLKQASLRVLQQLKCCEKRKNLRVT
Excerpt: calcium imaging (Fluo-4) dose-response, HEK293T on TAS2R10

[3] = target: T3, TAS2R41 (Homo sapiens, UniProt P59536)
T3 construct: full ORF from human genomic DNA with N-terminal rhodopsin tag (first 20 residues), pCI; HEK293T with Galpha16/gust44
T3 sequence (P59536 1-307): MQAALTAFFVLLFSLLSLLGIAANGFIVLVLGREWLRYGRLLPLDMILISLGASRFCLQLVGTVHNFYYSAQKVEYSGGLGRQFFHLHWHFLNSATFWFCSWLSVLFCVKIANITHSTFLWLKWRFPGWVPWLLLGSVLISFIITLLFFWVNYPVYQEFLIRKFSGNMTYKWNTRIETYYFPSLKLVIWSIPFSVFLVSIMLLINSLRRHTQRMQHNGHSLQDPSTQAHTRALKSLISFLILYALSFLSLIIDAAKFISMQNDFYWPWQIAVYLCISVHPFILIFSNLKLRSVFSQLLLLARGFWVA
Excerpt: calcium imaging (Fluo-4) dose-response, HEK293T on TAS2R41

[4] = target: T4, TAS2R4 (Homo sapiens, UniProt Q9NYW5)
T4 construct: full ORF from human genomic DNA with N-terminal rhodopsin tag (first 20 residues), pCI; HEK293T with Galpha16/gust44
T4 sequence (Q9NYW5 1-299): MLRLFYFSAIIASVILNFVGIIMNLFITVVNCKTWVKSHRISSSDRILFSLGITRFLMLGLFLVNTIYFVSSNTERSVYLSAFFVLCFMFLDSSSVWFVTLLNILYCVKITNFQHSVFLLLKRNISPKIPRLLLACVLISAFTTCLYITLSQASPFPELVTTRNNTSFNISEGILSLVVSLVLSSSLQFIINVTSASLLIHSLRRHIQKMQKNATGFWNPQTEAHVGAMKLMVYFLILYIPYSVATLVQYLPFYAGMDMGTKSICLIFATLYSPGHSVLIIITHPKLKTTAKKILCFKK
Excerpt: calcium imaging (Fluo-4) dose-response, HEK293T on TAS2R4

[5] = target: T5, TAS2R16 (Homo sapiens, UniProt Q9NYV7)
T5 construct: full ORF from human genomic DNA with N-terminal rhodopsin tag (first 20 residues), pCI; HEK293T with Galpha16/gust44
T5 sequence (Q9NYV7 1-291): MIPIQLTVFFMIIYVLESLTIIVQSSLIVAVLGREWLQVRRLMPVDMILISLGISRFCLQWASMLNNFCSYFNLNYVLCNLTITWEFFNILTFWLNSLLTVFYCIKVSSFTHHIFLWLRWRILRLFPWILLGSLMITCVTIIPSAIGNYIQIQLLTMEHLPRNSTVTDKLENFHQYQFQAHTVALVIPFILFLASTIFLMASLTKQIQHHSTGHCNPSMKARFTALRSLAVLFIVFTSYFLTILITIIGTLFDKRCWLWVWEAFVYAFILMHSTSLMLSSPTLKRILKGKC
Excerpt: calcium imaging (Fluo-4) dose-response, HEK293T on TAS2R16

[6] = target: T6, TAS2R39 (Homo sapiens, UniProt P59534)
T6 construct: full ORF from human genomic DNA with N-terminal rhodopsin tag (first 20 residues), pCI; HEK293T with Galpha16/gust44
T6 sequence (P59534 1-338): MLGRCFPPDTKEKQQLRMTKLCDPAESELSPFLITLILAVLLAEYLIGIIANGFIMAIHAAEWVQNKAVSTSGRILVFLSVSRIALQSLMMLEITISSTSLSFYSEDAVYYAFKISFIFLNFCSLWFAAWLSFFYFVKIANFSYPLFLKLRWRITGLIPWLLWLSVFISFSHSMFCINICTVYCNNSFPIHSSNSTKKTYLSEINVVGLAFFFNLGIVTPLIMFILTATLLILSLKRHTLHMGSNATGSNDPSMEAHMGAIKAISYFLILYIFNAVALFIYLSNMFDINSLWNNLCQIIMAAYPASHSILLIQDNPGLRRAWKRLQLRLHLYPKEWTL
Excerpt: calcium imaging (Fluo-4) dose-response, HEK293T on TAS2R39

[7] = target: T7, TAS2R46 (Homo sapiens, UniProt P59540)
T7 construct: full ORF from human genomic DNA with N-terminal rhodopsin tag (first 20 residues), pCI; HEK293T with Galpha16/gust44
T7 sequence (P59540 1-309): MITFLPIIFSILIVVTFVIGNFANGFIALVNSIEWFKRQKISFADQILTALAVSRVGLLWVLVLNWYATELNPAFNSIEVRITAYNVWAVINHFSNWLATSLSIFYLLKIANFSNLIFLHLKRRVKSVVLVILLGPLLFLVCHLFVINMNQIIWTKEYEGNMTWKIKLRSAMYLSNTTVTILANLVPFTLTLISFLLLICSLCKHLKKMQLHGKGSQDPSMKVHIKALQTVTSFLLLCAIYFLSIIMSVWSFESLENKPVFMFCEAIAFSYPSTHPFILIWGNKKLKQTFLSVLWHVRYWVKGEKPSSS
Excerpt: calcium imaging (Fluo-4) dose-response, HEK293T on TAS2R46

Compound	EC50 [1]	EC50 ([2]; read-out: Log EC50 (converted))	EC50 ([1]; read-out: Log EC50 (converted))	EC50 [2]	other results
c1ccc(CC2=NCCN2)cc1 [ww3]	1.28 mM				
COc1ccccc1C=O [compound 4, 4]		4 mM	1.23 mM		
N=C(N)NC(=N)Nc1ccccc1 [compound 1, 1]	0.76 mM			1.54 mM	EC50 [3]: 3.32 mM; EC50 [4]: 3.71 mM
NC(=O)c1ccccc1O [compound 2, 2]		9.75 mM	0.356 mM		EC50 [5]: 0.489 mM
COc1cc(/C=C\C(=O)O)cc(S(=O)(=O)Nc2ccc(C(=O)O)cc2)c1OC [compound 5, 5]	0.232 mM			4 mM	EC50 [6]: 0.0841 mM; EC50 [7]: 0.138 mM
